# The supplement of paper PMC4862054
# Test system: MDA-MB-468
# Experiment: drug sensitivity score (DSS), CellTox Green (DSS (AUC-based score)); higher = stronger drug effect (viability inhibition or cytotoxicity); extreme values may be limits of the assay
# Conditions: incubation time: 72 h
# Summary of the method: (§1)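 Compound was dispensed into 384-well plates at 5 concentrations in 10-fold steps spanning a 10,000-fold range chosen for each compound, and 20 µl of breast cancer cell suspension was added before 72 h of incubation. CellTox Green fluorescence was read at 485/520 nm, followed by CellTiter-Glo luminescence after 10 min at room temperature. Values on each plate were normalised to 0.1 % DMSO and a positive kill control. The drug sensitivity score came from the area under the fitted dose-response curve.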
row,Compound,drug sensitivity score
1,C#Cc1cccc(Nc2ncnc3cc(OCCOC)c(OCCOC)cc23)c1 [Erlotinib],0
2,O=P1(NCCCl)OCCCN1CCCl (configuration not stated) [Ifosfamide],0
3,Cn1c(Nc2ccc(C(F)(F)F)cc2)nc2cc(Oc3ccnc(-c4ncc(C(F)(F)F)[nH]4)c3)ccc21 [RAF265],0
4,Cc1ccc(C(=O)N(CCCN)[C@@H](c2oc3cc(Cl)ccc3c(=O)c2Cc2ccccc2)C(C)C)cc1,0
5,Cn1c(CCCC(=O)O)nc2cc(N(CCCl)CCCl)ccc21 [Bendamustine],4.02
6,O=C1CCC(N2C(=O)c3ccccc3C2=O)C(=O)N1 (configuration not stated) [Thalidomide],0
7,O=C(O)c1ccc(-c2c[nH]c3ncc(-c4ccccc4)cc23)cc1C1CCCC1,0
8,C=C(c1ccc(C(=O)O)cc1)c1cc2c(cc1C)C(C)(C)CCC2(C)C [Bexarotene],0

# Test system: HCC1599
# Experiment: as above
# Conditions: incubation time: 72 h
# Summary of the method: as §1
row,Compound,drug sensitivity score
1,Oc1nc(-c2ccc(C(F)(F)F)cc2)nc2c1CSCC2 [XAV-939],0
2,NC(=O)Nc1cc(-c2cccc(F)c2)sc1C(=O)N[C@H]1CCCNC1 [AZD7762],0
3,N.N.[Cl][Pt][Cl] [Cisplatin],0
4,CN[C@@H]1C[C@H]2O[C@@](C)([C@@H]1OC)n1c3ccccc3c3c4c(c5c6ccccc6n2c5c31)C(=O)N[C@H]4O [UCN-01],0
5,C[C@@H](Oc1cc(-c2cnn(C3CCNCC3)c2)cnc1N)c1c(Cl)ccc(F)c1Cl [Crizotinib],0
6,CC1(C)NC(=O)N(c2ccc([N+](=O)[O-])c(C(F)(F)F)c2)C1=O [Nilutamide],0
7,CNCc1ccc(-c2[nH]c3cc(F)cc4c3c2CCNC4=O)cc1 [Rucaparib],0
8,C[C@]12CC[C@@H]3c4ccc(O)cc4C[C@@H](CCCCCCCCC[S+]([O-])CCCC(F)(F)C(F)(F)F)[C@H]3[C@@H]1CC[C@@H]2O (some centres not stated) [Fulvestrant],0
9,CC(C)Cn1cnc2c(N)nc3ccccc3c21 [Imiquimod],0
10,C#Cc1cccc(Nc2ncnc3cc(OCCOC)c(OCCOC)cc23)c1 [Erlotinib],0
11,O=P1(NCCCl)OCCCN1CCCl (configuration not stated) [Ifosfamide],0
12,Cn1c(Nc2ccc(C(F)(F)F)cc2)nc2cc(Oc3ccnc(-c4ncc(C(F)(F)F)[nH]4)c3)ccc21 [RAF265],0
13,Cc1ccc(C(=O)N(CCCN)[C@@H](c2oc3cc(Cl)ccc3c(=O)c2Cc2ccccc2)C(C)C)cc1,0
14,Cn1c(CCCC(=O)O)nc2cc(N(CCCl)CCCl)ccc21 [Bendamustine],0
15,O=C1CCC(N2C(=O)c3ccccc3C2=O)C(=O)N1 (configuration not stated) [Thalidomide],0
16,O=C(O)c1ccc(-c2c[nH]c3ncc(-c4ccccc4)cc23)cc1C1CCCC1,0
17,C=C(c1ccc(C(=O)O)cc1)c1cc2c(cc1C)C(C)(C)CCC2(C)C [Bexarotene],0

# Test system: CAL-148
# Experiment: as above
# Conditions: incubation time: 72 h
# Summary of the method: as §1
row,Compound,drug sensitivity score
1,Oc1nc(-c2ccc(C(F)(F)F)cc2)nc2c1CSCC2 [XAV-939],0
2,NC(=O)Nc1cc(-c2cccc(F)c2)sc1C(=O)N[C@H]1CCCNC1 [AZD7762],0
3,N.N.[Cl][Pt][Cl] [Cisplatin],0
4,CN[C@@H]1C[C@H]2O[C@@](C)([C@@H]1OC)n1c3ccccc3c3c4c(c5c6ccccc6n2c5c31)C(=O)N[C@H]4O [UCN-01],3.4
5,C[C@@H](Oc1cc(-c2cnn(C3CCNCC3)c2)cnc1N)c1c(Cl)ccc(F)c1Cl [Crizotinib],0
6,CC1(C)NC(=O)N(c2ccc([N+](=O)[O-])c(C(F)(F)F)c2)C1=O [Nilutamide],0
7,CNCc1ccc(-c2[nH]c3cc(F)cc4c3c2CCNC4=O)cc1 [Rucaparib],0
8,C[C@]12CC[C@@H]3c4ccc(O)cc4C[C@@H](CCCCCCCCC[S+]([O-])CCCC(F)(F)C(F)(F)F)[C@H]3[C@@H]1CC[C@@H]2O (some centres not stated) [Fulvestrant],0
9,CC(C)Cn1cnc2c(N)nc3ccccc3c21 [Imiquimod],0
10,C#Cc1cccc(Nc2ncnc3cc(OCCOC)c(OCCOC)cc23)c1 [Erlotinib],0
11,O=P1(NCCCl)OCCCN1CCCl (configuration not stated) [Ifosfamide],0
12,Cn1c(Nc2ccc(C(F)(F)F)cc2)nc2cc(Oc3ccnc(-c4ncc(C(F)(F)F)[nH]4)c3)ccc21 [RAF265],0
13,Cc1ccc(C(=O)N(CCCN)[C@@H](c2oc3cc(Cl)ccc3c(=O)c2Cc2ccccc2)C(C)C)cc1,0
14,Cn1c(CCCC(=O)O)nc2cc(N(CCCl)CCCl)ccc21 [Bendamustine],0
15,O=C1CCC(N2C(=O)c3ccccc3C2=O)C(=O)N1 (configuration not stated) [Thalidomide],1.58
16,O=C(O)c1ccc(-c2c[nH]c3ncc(-c4ccccc4)cc23)cc1C1CCCC1,0
17,C=C(c1ccc(C(=O)O)cc1)c1cc2c(cc1C)C(C)(C)CCC2(C)C [Bexarotene],0

# Test system: Hs578T
# Experiment: as above
# Conditions: incubation time: 72 h
# Summary of the method: as §1
row,Compound,drug sensitivity score
1,Oc1nc(-c2ccc(C(F)(F)F)cc2)nc2c1CSCC2 [XAV-939],3.23
2,NC(=O)Nc1cc(-c2cccc(F)c2)sc1C(=O)N[C@H]1CCCNC1 [AZD7762],17.4
3,N.N.[Cl][Pt][Cl] [Cisplatin],0
4,CN[C@@H]1C[C@H]2O[C@@](C)([C@@H]1OC)n1c3ccccc3c3c4c(c5c6ccccc6n2c5c31)C(=O)N[C@H]4O [UCN-01],17.7
5,C[C@@H](Oc1cc(-c2cnn(C3CCNCC3)c2)cnc1N)c1c(Cl)ccc(F)c1Cl [Crizotinib],0
